Experimental data: the NIST ThermoML archive (doi:10.1021/acs.jced.8b00786)
± gives the expanded uncertainty stated by the source.

Conditions: Liquid; for viscosity: Capillary tube (Ostwald / Ubbelohde) method; for mass density: Vibrating tube method

SMILES: CC(C)CCCC(C)CCCC(C)CCCCC(C)CCCC(C)CCCC(C)C (stereo not given) [2,6,10,15,19,23-hexamethyltetracosane]
- viscosity (313.15 K, 5700 kPa): 16.52 ± 0.38 mPa·s
- mass density (313.15 K, 5700 kPa): 798.1 ± 2.4 kg/m3
- viscosity (313.15 K, 13500 kPa): 19.37 ± 0.44 mPa·s
- mass density (313.15 K, 13500 kPa): 804.3 ± 2.4 kg/m3
- viscosity (313.15 K, 23500 kPa): 23.38 ± 0.53 mPa·s
- mass density (313.15 K, 23500 kPa): 811.4 ± 2.5 kg/m3
- viscosity (313.15 K, 45700 kPa): 35.26 ± 0.82 mPa·s
- mass density (313.15 K, 45700 kPa): 822.6 ± 2.5 kg/m3
- viscosity (313.15 K, 68000 kPa): 52.85 ± 1.2 mPa·s
- mass density (313.15 K, 68000 kPa): 832.5 ± 2.6 kg/m3
- viscosity (338.15 K, 7900 kPa): 7.82 ± 0.18 mPa·s
- mass density (338.15 K, 7900 kPa): 783.2 ± 2.4 kg/m3
- viscosity (338.15 K, 11000 kPa): 8.05 ± 0.21 mPa·s
- mass density (338.15 K, 11000 kPa): 785.2 ± 2.4 kg/m3
- viscosity (338.15 K, 22500 kPa): 10.19 ± 0.26 mPa·s
- mass density (338.15 K, 22500 kPa): 793.3 ± 2.4 kg/m3
- viscosity (338.15 K, 45600 kPa): 14.4 ± 0.37 mPa·s
- mass density (338.15 K, 45600 kPa): 807.5 ± 2.5 kg/m3
- viscosity (338.15 K, 60500 kPa): 18.07 ± 0.41 mPa·s
- mass density (338.15 K, 60500 kPa): 814.6 ± 2.5 kg/m3
- viscosity (338.15 K, 76300 kPa): 22.98 ± 0.71 mPa·s
- mass density (338.15 K, 76300 kPa): 820.5 ± 2.6 kg/m3
- viscosity (363.15 K, 10600 kPa): 4.5 ± 0.11 mPa·s
- mass density (363.15 K, 10600 kPa): 769.9 ± 2.3 kg/m3
- viscosity (363.15 K, 21500 kPa): 5.38 ± 0.14 mPa·s
- mass density (363.15 K, 21500 kPa): 777.9 ± 2.4 kg/m3
- viscosity (363.15 K, 42500 kPa): 7.21 ± 0.19 mPa·s
- mass density (363.15 K, 42500 kPa): 791.1 ± 2.4 kg/m3
- viscosity (363.15 K, 63700 kPa): 9.47 ± 0.25 mPa·s
- mass density (363.15 K, 63700 kPa): 802.4 ± 2.5 kg/m3
